Reference: PMC6037046, “Structural insights into Plasmodium falciparum nicotinamide mononucleotide adenylyltransferase: oligomeric assembly” (Memórias do Instituto Oswaldo Cruz, 2018)

Experiments:
[1] = biological target: 6 x His-Plasmodium falciparum nicotinamide mononucleotide adenylyltransferase (PfNMNAT) recombinant protein (Plasmodium falciparum (FCB2 strain gDNA; ORF identified in strain 3D7)) (UniProt Q8IE38); experiment: native gel or EMSA; native PAGE of IMAC eluate (four gels of 6, 8, 10, 12 %T) with Ferguson plot (-Log Kr vs Log MW) against standard proteins
6 x His-PfNMNAT = biological target: T1, 6 x His-PfNMNAT (Plasmodium falciparum, UniProt Q8IE38); experiment: RP-HPLC of NAD formed (direct assay); also ADH-coupled assay at […] nm; format: biochemical; conditions: 1.25 mM NMN, 1.25 mM ATP, 10 mM MgCl2, 25 mM HEPES/KOH pH 7.4, 37 C
T1 construct: gene PF3D7_1327600; full ORF in pET100/D-TOPO, N-terminal 6xHis tag kept, E. coli Codon Plus (DE3) RIL, ~28 kDa
T1 sequence (Q8IE38 1-204): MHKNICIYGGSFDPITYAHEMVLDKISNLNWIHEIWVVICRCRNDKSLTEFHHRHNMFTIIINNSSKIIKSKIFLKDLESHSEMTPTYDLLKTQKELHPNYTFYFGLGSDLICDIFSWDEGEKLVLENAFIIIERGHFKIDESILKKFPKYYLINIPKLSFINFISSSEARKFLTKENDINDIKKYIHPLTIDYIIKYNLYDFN

| Compound | stoichiometry N [1] | RP-HPLC of NAD formed (direct assay); also ADH-coupled assay at 340 nm (6 x His-PfNMNAT) |
| --- | --- | --- |
| 6 x His-Plasmodium falciparum nicotinamide mononucleotide adenylyltransferase (PfNMNAT) recombinant protein (from UniProt Q8IE38 1-204) (enzyme) | 2 | – |
| Nc1ncnc2c1ncn2[C@@H]1O[C@H](COP(=O)(O)OP(=O)(O)OP(=O)(O)O)[C@@H](O)[C@H]1O [ATP] | – | direct enzymatic assays that measured NAD synthesis from NMN and ATP |
| NC(=O)c1ccc[n+]([C@@H]2O[C@H](COP(=O)(O)O)[C@@H](O)[C@H]2O)c1 [NMN, nicotinamide mononucleotide] | – | direct enzymatic assays that measured NAD synthesis from NMN and ATP |
